Measurements reported in patent US9669003B2, “Use of flavone and flavanone derivatives in preparation of sedative and hypnotic drugs” (priority 2012, dated 2017).
Marks after values point to notes of the source that are not given here.

Key:
Assay type in all cases: in vivo
Kunming mice [1] = assay: Influence on autonomic activity of normal mice (ZIL-2 mice autonomic activity meter, counts within 10 min); conditions: intragastric, x ± s, n = 10; for Times of activities in 1 h after drug administration/10 min: 1 h after administration; for Times of activities in 2 h after drug administration/10 min: 2 h after administration; for Times of activities in 24 h after drug administration/10 min: 24 h after administration
From the text: (§1) 1.1 Animals for experiments: Kunming mice, weighting 18.9˜22.2 g for females, and 20.2˜23.0 g for males, licensed under SCXK-(Ji) 2007-0003, and provided by The experimental animal centre, Jilin University.
(§2) 1.2 Chemicals for experiments: The flavone derivatives provided in Examples 1-41 and the flavanone derivatives provided in Examples 42-71 are all formulated with 0.5% sodium carboxymethyl cellulose as solutions with required concentrations.
(§3) 1.3 Grouping of animals: 6420 animals are employed in the entire experiments and 2140 of the animals are randomly divided into 214 groups by gender, and the […] include: control group, low dosage group for each experimental drugs (25 mg/kg), medium dosage group for each experimental drugs (50 mg/kg), and high dosage group for each experimental drugs (100 mg/kg). Each group has 10 animals and either female or male constitutes half of the group. The groups are used in behavior observation and voluntary action observation. The other 4280 animals are randomly divided into 214 groups by gender respectively (the grouping way is the same with that described above). Each group has 20 animals and either female or male constitutes half of the group. In each group, 10 animals are used in hypnosis experimentations with pentobarbital sodium doses below the threshold, and the other 10 animals are used hypnosis experimentations with pentobarbital sodium doses at the threshold.
1.4 Experimental instrument and agents: ZIL-2 mice autonomic activity meter, production of Institute of Materia Medica of Chinese Academy of Medical Sciences; pentobarbital sodium, Lot: 100808, 25 g/bottle, Beijing Chemical Reagent Company equipment imported from Germany.
1.5.2 Influence on Autonomic Activity of Normal Mice
After observing the general behavior, in 1 h, 2 h and 24 h after drug administration, respectively, ZIL-2 mice autonomic activity meter is put respectively. Number of autonomic activities of each group of mice is measured within 10 min. Results among groups are compared.
(§4) Number of autonomic activities is detected by leneve Test for homogeneity of variance. If the homogeneity of variance is good (P>0.05), statistical analysis is performed with ANOVA. If ANOVA have statistical significance (P≦0.05), Dunnett's test for multiple comparisons analysis is performed. Number of animals of sleeping mice is applied of ANOVA. Incidence rate of animal asleep is applied of χ2 test. Sleep latency and sleep duration are recorded in min, averaged by group, represented by standard deviation, and undergo statistical analysis using ANOVA.

Kunming mice [2] = assay: Influence on hypnosis effect with pentobarbital sodium doses below the threshold (25 mg/kg i.p.); conditions: pentobarbital sodium 25 mg/kg i.p. 60 min later, sleep observed in 30 min, n = 10
From the text: as §1, §2, §3
1.5.3 Influence on Hypnosis Effect with Mice Pentobarbital Sodium Doses Below the Threshold
(§5) The drug is intragastric administered in mice for single time, 2 animals of each group are given drug per round with the dosing interval of 40 min (±5 min). According to the administration round, in 60 min (±5 min) of each round after the drug administration, the animals were intraperitoneally injected 0.3% sodium pentobarbital 25 mg/kg, respectively. Sleep condition of the animals were observed within 30 min (under sleep determination standard of loss of righting reflex more than 1 min). After animals undergo loss of righting reflex, number of the animals is recorded, to calculate sleep percentage.
as §4

Kunming mice [3] = assay: Influence on hypnosis effect with pentobarbital sodium doses at the threshold (50 mg/kg i.p.); conditions: pentobarbital sodium 50 mg/kg i.p. 60 min later, x ± s, n = 10
From the text: as §1, §2, §3
1.5.4 Influence on Hypnosis Effect with Mice Pentobarbital Sodium Doses at the Threshold
as §5, with “50” for “25”, “Time to fall asleep (sleep latency) and sleep duration” for “Sleep condition”, “recorded” for “observed”, “under” for “30 min (under”, “min.” for “min). After animals undergo loss of righting reflex, number of the animals is recorded, to calculate sleep percentage.”
as §4

[4] = test drug 25 mg/kg intragastric single dose
[5] = test drug 50 mg/kg intragastric single dose
[6] = test drug 100 mg/kg intragastric single dose
[7] = 25 mg/kg intragastric single dose
[8] = 50 mg/kg intragastric single dose
[9] = 100 mg/kg intragastric single dose

SMILES | Times of activities in 1 h after drug administration/10 min (Kunming mice [1]; 25 mg/kg) | Times of activities in 2 h after drug administration/10 min (Kunming mice [1]; 25 mg/kg) | Times of activities in 24 h after drug administration/10 min (Kunming mice [1]; 25 mg/kg) | Times of activities in 1 h after drug administration/10 min (Kunming mice [1]; 50 mg/kg) | Times of activities in 2 h after drug administration/10 min (Kunming mice [1]; 50 mg/kg) | Times of activities in 24 h after drug administration/10 min (Kunming mice [1]; 50 mg/kg) | Times of activities in 1 h after drug administration/10 min (Kunming mice [1]; 100 mg/kg) | Times of activities in 2 h after drug administration/10 min (Kunming mice [1]; 100 mg/kg) | Times of activities in 24 h after drug administration/10 min (Kunming mice [1]; 100 mg/kg) | Number of sleeping animals (Kunming mice [2]; [4]) | rate of sleeping (%) (Kunming mice [2]; [4]) | Number of sleeping animals (Kunming mice [2]; [5]) | rate of sleeping (%) (Kunming mice [2]; [5]) | Number of sleeping animals (Kunming mice [2]; [6]) | rate of sleeping (%) (Kunming mice [2]; [6]) | duration of sleep (Kunming mice [3]; [7]) | time to sleep (Kunming mice [3]; [7]) | duration of sleep (Kunming mice [3]; [8]) | time to sleep (Kunming mice [3]; [8]) | duration of sleep (Kunming mice [3]; [9]) | further results
COc1ccc(O)cc1-c1cc(=O)c2c(O)cc(OC)c(OC)c2o1 [Example 12, 5,5′-dihydroxyl-7,8,2′-trimethoxyl-flavone] | 255.9 ± 39.8 /10 min | 284.2 ± 41.7 /10 min | 303.1 ± 69.1 /10 min | 179.5 ± 51.4 /10 min | 168.5 ± 54.3 /10 min | 317.9 ± 55.3 /10 min | 153.7 ± 48.4 /10 min | 135.9 ± 48.7 /10 min | 302.1 ± 89.0 /10 min | 5 | 50** % | 8 | 80*** % | 8 | 80*** % | 22.71 ± 26.17 min | 5.43 ± 2.05 min | 28.68 ± 27.56 min | 5.01 ± 2.00 min | 38.55 ± 23.27 min | time to sleep (Kunming mice [3]; [9]): 4.25 ± 1.16 min
C=Cc1ccc(-c2cc(=O)c3cc(C#N)c(Cc4ccccc4)c(C=CC)c3o2)cc1[N+](=O)[O-] [Example 32] | 332.1 ± 47.8 /10 min | 321.3 ± 53.9 /10 min | 327.8 ± 93.9 /10 min | 270.2 ± 59.3 /10 min | 269.3 ± 50.3 /10 min | 334.7 ± 95.6 /10 min | 245.9 ± 38.8 /10 min | 258.9 ± 49.9 /10 min | 322.7 ± 88.5 /10 min | 3 | 30% | 5 | 50** % | 6 | 60** % | 25.80 ± 22.64 min | 5.38 ± 2.21 min | 46.11 ± 24.53 min | 4.34 ± 1.45 min | 54.78 ± 20.89 min | time to sleep (Kunming mice [3]; [9]): 3.86 ± 2.35 min
N#Cc1cc(-c2cc(=O)c3c(N)cc(F)cc3o2)ccc1O [Example 37] | 321.4 ± 62.4 /10 min | 288.0 ± 38.9 /10 min | 335.3 ± 65.2 /10 min | 279.7 ± 46.3 /10 min | 259.5 ± 46.5 /10 min | 333.8 ± 87.8 /10 min | 277.3 ± 45.7 /10 min | 222.8 ± 43.2 /10 min | 317.8 ± 62.3 /10 min | 3 | 30% | 6 | 60** % | 7 | 70** % | 30.27 ± 22.71 min | 4.99 ± 1.97 min | 40.03 ± 20.58 min | 3.98 ± 1.46 min | 57.51 ± 25.63 min | time to sleep (Kunming mice [3]; [9]): 3.88 ± 1.43 min
CCCc1cc2c(=O)cc(-c3ccc(C(=O)O)c(C(N)=O)c3)oc2c(I)c1CCS(=O)(=O)O [Example 35] | 336.84 ± 57.8 /10 min | 278.8 ± 49.0 /10 min | 307.4 ± 69.8 /10 min | 310.3 ± 48.9 /10 min | 244.8 ± 39.6 /10 min | 308.1 ± 954 /10 min | 266.8 ± 50.1 /10 min | 219.6 ± 47.7 /10 min | 321.5 ± 72.9 /10 min | 4 | 40* % | 6 | 60** % | 7 | 70** % | 38.25 ± 15.16 min | 4.35 ± 1.42 min | 57.54 ± 28.39 min | 3.88 ± 1.16 min | 58.38 ± 26.82 min | time to sleep (Kunming mice [3]; [9]): 3.76 ± 1.49 min
N#CSc1ccc(-c2cc(=O)c3cc(N)c(F)c(C#N)c3o2)cc1O [Example 28] | 289.8 ± 50.1 /10 min | 278.3 ± 42.9 /10 min | 315.2 ± 76.3 /10 min | 248.9 ± 61.1 /10 min | 260.8 ± 58.1 /10 min | 327.5 ± 80.7 /10 min | 144.2 ± 32.5 /10 min | 237.5 ± 44.3 /10 min | 308.7 ± 84.7 /10 min | 3 | 30% | 5 | 50** % | 6 | 60** % | 27.68 ± 23.55 min | 5.48 ± 2.25 min | 46.89 ± 23.61 min | 4.31 ± 1.19 min | 55.49 ± 21.02 min | time to sleep (Kunming mice [3]; [9]): 3.93 ± 2.45 min
